Tested on: 885512-296-R-J2-PDC complex spheroid viability
Assay: Anticancer human tumor 885512-296-R-J2-PDC patient-derived breast carcinoma cell line growth inhibition [GQUAD]
Conditions: for IC50: curve of first compound; for viability, T/C: stronger effect = lower value
Outline: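 Multi-cell-type spheroids of tumor cells with HUVEC and mesenchymal stem cells, treated with drug combinations. Concentrations descend in half-log steps from near clinical Cmax, or from 10 microM where Cmax is unknown; viability read-out.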

[1] = second compound 0.0316 µM, first compound 0.0316 µM
[2] = second compound 0.0316 µM, first compound 0.1 µM
[3] = second compound 0.0316 µM, first compound 0.316 µM
[4] = second compound 0.0316 µM, first compound 1 µM
[5] = second compound 0.0316 µM, first compound 3.16 µM
[6] = second compound 0.0316 µM, first compound 10 µM
[7] = second compound 0.1 µM, first compound 0.0316 µM
[8] = second compound 0.1 µM, first compound 0.1 µM
[9] = second compound 0.1 µM, first compound 0.316 µM
[10] = second compound 0.1 µM, first compound 1 µM
[11] = second compound 0.1 µM, first compound 3.16 µM
[12] = second compound 0.1 µM, first compound 10 µM
[13] = second compound 0.316 µM, first compound 0.0316 µM
[14] = second compound 0.316 µM, first compound 0.1 µM
[15] = second compound 0.316 µM, first compound 0.316 µM
[16] = second compound 0.316 µM, first compound 1 µM
[17] = second compound 0.316 µM, first compound 3.16 µM
[18] = second compound 0.316 µM, first compound 10 µM
[19] = second compound 1 µM, first compound 0.0316 µM
[20] = second compound 1 µM, first compound 0.1 µM
[21] = second compound 1 µM, first compound 0.316 µM
[22] = second compound 1 µM, first compound 1 µM
[23] = second compound 1 µM, first compound 3.16 µM
[24] = second compound 1 µM, first compound 10 µM
[25] = second compound 3.16 µM, first compound 0.0316 µM
[26] = second compound 3.16 µM, first compound 0.1 µM
[27] = second compound 3.16 µM, first compound 0.316 µM
[28] = second compound 3.16 µM, first compound 1 µM
[29] = second compound 3.16 µM, first compound 3.16 µM
[30] = second compound 3.16 µM, first compound 10 µM
[31] = second compound 10 µM, first compound 0.0316 µM
[32] = second compound 10 µM, first compound 0.1 µM
[33] = second compound 10 µM, first compound 0.316 µM
[34] = second compound 10 µM, first compound 1 µM
[35] = second compound 10 µM, first compound 3.16 µM
[36] = second compound 10 µM, first compound 10 µM
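Further: spheroids exposed to the compounds for one week.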
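Wherever viability, T/C is given: percent of tumor spheroid viability relative to DMSO vehicle control wells.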

## CC(C)(O)C1CCC(Nc2ccc3ncc(-c4cccc(C(F)(F)F)c4)n3n2)CC1 (centres undefined) + Cc1[nH]c2ccc(F)cc2c1-c1nc2c3cccnc3c3ncccc3c2[nH]1
Second compound 0.0316 µM
  IC50: > 10000 nM
Second compound 0.1 µM
  IC50: > 10000 nM
Second compound 0.316 µM
  IC50: > 10000 nM
Second compound 1 µM
  IC50: 6910 nM
Second compound 3.16 µM
  IC50: < 31.6 nM
Second compound 10 µM
  IC50: < 31.6 nM
[1]
  viability, T/C: 102%
[2]
  viability, T/C: 92.3%
[3]
  viability, T/C: 92.1%
[4]
  viability, T/C: 95.3%
[5]
  viability, T/C: 99%
[6]
  viability, T/C: 81.1%
[7]
  viability, T/C: 106%
[8]
  viability, T/C: 101%
[9]
  viability, T/C: 92.8%
[10]
  viability, T/C: 76.1%
[11]
  viability, T/C: 84.9%
[12]
  viability, T/C: 86.9%
[13]
  viability, T/C: 101%
[14]
  viability, T/C: 89.6%
[15]
  viability, T/C: 83.1%
[16]
  viability, T/C: 92.5%
[17]
  viability, T/C: 81.8%
[18]
  viability, T/C: 63.6%
[19]
  viability, T/C: 69%
[20]
  viability, T/C: 70.7%
[21]
  viability, T/C: 73.6%
[22]
  viability, T/C: 69.9%
[23]
  viability, T/C: 58.6%
[24]
  viability, T/C: 45.3%
[25]
  viability, T/C: 9.24%
[26]
  viability, T/C: 12.2%
[27]
  viability, T/C: 10.3%
[28]
  viability, T/C: 10.4%
[29]
  viability, T/C: 12.7%
[30]
  viability, T/C: 2.78%
[31]
  viability, T/C: 1.94%
[32]
  viability, T/C: 1.3%
[33]
  viability, T/C: 2.71%
[34]
  viability, T/C: 3.75%
[35]
  viability, T/C: 4.01%
[36]
  viability, T/C: 1%

## CCCS(=O)(=O)Nc1ccc(F)c(C(=O)c2c[nH]c3ncc(-c4ccc(Cl)cc4)cc23)c1F + Cc1[nH]c2ccc(F)cc2c1-c1nc2c3cccnc3c3ncccc3c2[nH]1
Second compound 0.0316 µM
  IC50: 393 nM
Second compound 0.1 µM
  IC50: 406 nM
Second compound 0.316 µM
  IC50: 183 nM
Second compound 1 µM
  IC50: 49.3 nM
Second compound 3.16 µM
  IC50: < 31.6 nM
Second compound 10 µM
  IC50: < 31.6 nM
[1]
  viability, T/C: 112%
[2]
  viability, T/C: 98.4%
[3]
  viability, T/C: 60.7%
[4]
  viability, T/C: 8.66%
[5]
  viability, T/C: 3.89%
[6]
  viability, T/C: 2.96%
[7]
  viability, T/C: 121%
[8]
  viability, T/C: 101%
[9]
  viability, T/C: 64%
[10]
  viability, T/C: 8.42%
[11]
  viability, T/C: 2.95%
[12]
  viability, T/C: 3.79%
[13]
  viability, T/C: 94.4%
[14]
  viability, T/C: 74%
[15]
  viability, T/C: 28.7%
[16]
  viability, T/C: 2.94%
[17]
  viability, T/C: 2.46%
[18]
  viability, T/C: 4.34%
[19]
  viability, T/C: 68.3%
[20]
  viability, T/C: 20.9%
[21]
  viability, T/C: 4.4%
[22]
  viability, T/C: 2.04%
[23]
  viability, T/C: 2.3%
[24]
  viability, T/C: 2.75%
[25]
  viability, T/C: 4.29%
[26]
  viability, T/C: 3.06%
[27]
  viability, T/C: 1.78%
[28]
  viability, T/C: 2%
[29]
  viability, T/C: 2.26%
[30]
  viability, T/C: 2.26%
[31]
  viability, T/C: 1.32%
[32]
  viability, T/C: 1.38%
[33]
  viability, T/C: 1.47%
[34]
  viability, T/C: 1.65%
[35]
  viability, T/C: 2.7%
[36]
  viability, T/C: 3.37%

Reference: PubChem BioAssay AID2060490 (Molecular Pharmacology Branch, DTP, NCI, 2025)
